Assay results published in publication PMC10547880, “Synthesis and biological evaluation of novel 1,2,3-triazole hybrids of cabotegravir: identification of potent antitumor activity against lung cancer” (Frontiers in Pharmacology, 2023).
“Also recorded” adds a separate entry of the source.

What was measured:
Assay type in all cases: cell-based, Human
H1299 cells [1] = test: Plate clone formation assay, H1299; conditions: H1299, 2-32 μM
Procedure: Cells with the density of 500 cells per well were seeded in a 6-well plate. Different concentrations (0, 2 μM, 4 μM, 8 μM, 16 μM and 32 μM) of compounds were added to cells and maintained for a 72- hour duration. And cells were cultured until the monoclonal appeared. Afterward, cells were fixed with 4% paraformaldehyde and stained by Giemsa dye. The plate clone numbers were photographed and counted using a microscope. Values were expressed as Mean ± SEM, p < 0.05 was considered statistically significant. Data were performed using Graph Prim 7.0.
To assess the anti-proliferative effects of compound 5i, live/dead cell staining was performed using Calcein Acetoxymethyl Ester (Calcein-AM) and Propidium Iodide (PI) dyes ([Xie et al., 2023]). Calcein-AM highlights live cells through green fluorescence emission, while PI identifies dead cells with damaged membrane integrity, producing red fluorescence. H460 and H1299 cells were treated with different concentrations (0, 5, 10 and 20 μM) of compound 5i for 24 h. After 24 h treatment, cells were stained with Calcein-AM and PI, diluted in cultured medium, and incubated for an hour in dark. Then the fluorescence was detected and photographed using a fluorescent microscope. […] In addition, we also performed plate clone formation assay ([Xu et al., 2018]) to further investigate the anti-proliferation ability of compound 5i. […]

H460 cells [2] = test: Cellular ROS measurement (DCFH-DA), H460; conditions: H460, 5, 10 or 20 μM, 24 h
Procedure: Cells with a density of 5 × 10^3 cells/well were cultured in a 96-well plate. The cells were treated with different concentrations (0, 5, 10, 20 μM) of compounds for 24 h. Then the medium was replaced with 10 μM DCFH-DA dissolved in culture medium and incubated for 30min at 37°C in dark. The fluorescent cells were observed and photographed using a fluorescent microscope.
Reactive oxygen species (ROS) levels were determined quantitatively using the probe 2′-7′-dichlorodihydrofluorescin diacetate (H2DCFDA) ([Kim and Xue, 2020]). Under normal condition, ROS participated in mitochondrial electron transport, signal transduction, gene expression, and enzyme reactions. But excess or deficiency of ROS levels can result in the development of diseases including cancers, diabetes, atherosclerosis, neurodegenerative diseases and others ([Wang et al., 2023]). ROS induction is associated with mitochondrial membrane damage, cell apoptosis, and ultimately cell death ([Dixon and Stockwell, 2014]). To evaluate the effect of compound 5i on ROS generation, H460 cells were treated with 5 μM, 10 μM or 20 μM of compound 5i for 24 h. […] DCFH-DA has no fluorescence and it can pass through cell membrane freely. […] This phenomenon can be attributed to the reduction in the number of live cells; however, the observed fluorescence appeared more intense (Figure 5).

H460 cells [3] = test: Western blot of protein expression, H460; conditions: H460, 2, 4, 8 μM, 72 h
Procedure: Western blot was used to analyze protein expressions. Cells were cultured in 12-well plates and treated with different concentrations (0, 2, 4, 8 μM) of compounds for 72 h. Cell proteins were extracted using RIPA buffer with protease/phosphatase inhibitor cocktail (CST). 10%–15% sodium dodecyl sulfate polyacrylamide gel electrophoresis was used to separate proteins and nitrocellulose membranes (Millipore) was used to collected proteins. Antibodies used in western bolt were LC3 (3868s, CST), caspase 3 (9662s, CST), cyclin D (2922s, CST), cyclin E (20808s, CST), β-Catenin (9562s, CST), γH2AX (9718s, CST), PARP (46D11, CST), and β-actin (4967s, CST). Values were expressed as Mean ± SEM, p < 0.05 was considered statistically significant. Data were performed using Graph Prim 7.0.
Western blot analysis was performed to assess the protein expressions involved in cell growth and cell death processes. H460 and H1299 cells were treated with different concentrations of compound 5i, and whole cell proteins were collected for analysis. […] Autophagy has both tumor suppression and growth promotion effects in cancers, depending on the cellular context and cancer stage. On the one hand, autophagy inhibits cancer development via eliminating dysfunctional proteins and damaged mitochondria. On the other hand, autophagy can promote tumor growth by providing recycled metabolites to support cancer cell survival and growth ([Wang et al., 2023]). […] But in H1299 cells, compound 5i exerted its anticancer ability by suppressing cell division and proliferation.

H1299 cells [4] = test: CCK8 cell viability, H1299; conditions: H1299, 25 μM, 48 h
Procedure: Human lung cancer cell line H460 and H1299, human liver normal cell line LO2 were bought from ATCC. DMEM or RPMI 1640 was used as the cell culture medium with 10% FBS and 1% penicillin/streptomycin. Cells were maintained in an incubator with 37°C humidified atmosphere and 5% CO2.
Cell viability and IC50 values were determined using the CCK8 assay kit. Cells were seeded at a density of 5 × 10^3 cells per well in a 96-well plate. After overnight adhesion, 25 μM of compounds or vehicle control DMSO which all dissolved in the culture medium were added to cells and cultured for 48 h or 72 h. CCK8 reagent, dissolved in the medium, was then added to cells and incubated for 1 h. The absorbance at 450 nm was measured using a microplate spectrophotometer (Thermo). Cell viability was calculated, with the untreated group taken as 100%. For IC50 values determination, different concentrations (0, 0.4 μM, 2 μM, 10 μM, 20 μM, 50 μM) of compounds were added to cells for 72 h. Subsequent CCK8 measurement allowed the calculation of inhibition percentage based on cell viability. The IC50 values were computed by the prism statistical software. The CCK-8 assay was conducted three times and the repetitions in each time were at least three. All the values were expressed as Mean ± SD, p < 0.05 was considered statistically significant.
In order to assess the potential cytotoxicity of the synthesized compounds, we selected two types of human non-small-cell lung cancer cell line, H460 and H1299. Cell viability and cytotoxicity were evaluated using the CCK8 assay ([Xu et al., 2018]). The cells were treated with 25 μM of compounds 5a-5s and 6a-6i for 48h and 72 h. […] In contrast, no compounds managed to reduce H1299 cell viability to less than 50%, yet compounds 5i, 5m, 6h and 6i achieved cell viability rates below 70%. […] It is worth noting that minimal effects on the cell viability of the normal cell line LO2 were observed when exposed to these compounds. Further, we determined the half-maximal inhibitory concentration (IC50) of selected compounds against H460 cells, the results of which were summarized in Table 3.

In the case of `COc1c2n(cc(C(=O)Nc3cccc(-c4cn(-c5ccccc5OC(F)(F)F)nn4)c3)c1=O)CC1OCC(C)N1C2=O` (stereo not shown) [Compound 5i], the “number of cell clones” value (H1299 cells [1]) is reported as “reduction in the number of cell clones”, the ROS generation (H460 cells [2]) is reported as “significant augmentation in ROS generation” and the “Cyclin D expression” value (H460 cells [3]) is reported as “no significant differences”. The “Cyclin E expression” value (H460 cells [3]) was “no significant differences”, the LC3 expression (H460 cells [3]) was “pronounced elevation; also recorded: significant increase” and the PARP expression (H460 cells [3]) was “no significant differences”. The caspase3 expression (H460 cells [3]) was “no significant differences”, the β-catenin expression (H460 cells [3]) was “no significant differences” and the γ-H2AX expression (H460 cells [3]) was “no significant differences”. For the same compound, the Cell viability (H1299 cells [4]) was 90.47%.
